Experimental data from patent US12398155B2, “Thienopyridinone compounds” (Janssen Pharmaceutica NV, priority 2019, dated 2025).

What was measured:
[1] = target: T1, human FGFR3 V555M enzyme (cytoplasmic domain carrying V555M mutation) (Homo sapiens, UniProt P22607, V555M); test: FGFR3 V555M mobility shift assay (enzymatic assay); assay type: biochemical; settings: 30 μM ATP, 45 minutes at 30° C.; read-out: FGFR3 V555M Caliper
T1 construct: cytoplasmic domain carrying V555M mutation, from Cama Biosciences; purchased Cama Biosciences (so in the source)
T1 sequence (P22607 397-806 V555M limits assumed): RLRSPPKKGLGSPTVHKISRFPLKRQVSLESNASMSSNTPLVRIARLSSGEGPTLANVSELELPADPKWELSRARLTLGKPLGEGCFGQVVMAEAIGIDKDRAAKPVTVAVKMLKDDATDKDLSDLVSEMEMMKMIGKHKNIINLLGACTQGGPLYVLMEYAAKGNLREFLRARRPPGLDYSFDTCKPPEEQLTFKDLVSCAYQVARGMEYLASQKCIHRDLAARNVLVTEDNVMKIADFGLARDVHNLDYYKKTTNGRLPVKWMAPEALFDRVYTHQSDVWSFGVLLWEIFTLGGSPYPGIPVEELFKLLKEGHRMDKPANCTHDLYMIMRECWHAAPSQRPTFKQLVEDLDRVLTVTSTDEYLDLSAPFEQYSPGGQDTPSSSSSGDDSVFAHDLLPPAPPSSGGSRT
Experimental: FGFR3 V555M Mobility Shift Assay (Enzymatic Assay)
In a final reaction volume of 25 μL, 0.04 ng/μL human FGFR3 V555M enzyme (cytoplasmic domain carrying V555M mutation, from Cama Biosciences) was incubated with 30 μM ATP, 1 μM FL-peptide 30 substrate and 250 nL of testing compound (1% DMSO final) in assay buffer (100 mM HEPES pH 7.4, 10 mM MgCl2, 0.003% Brij35, 1 mM DTT). After incubation for 45 minutes at 30° C. the reaction was stopped with 10 μL of 0.5M EDTA pH 8.0, and then 25 μL of reaction mixture was transferred to reading plate and measured on Caliper EZ reader II. The substrate-product conversion rate was used as raw data for normalization and concentration-response curve (10 dose points with 4× serial dilution, starting with 10 μM) was plotted using Prism to calculate IC50 (M), pIC50 (−log IC50) and HillSlope value.

[2] = test system: NIH/3T3 cells overexpressing FGFR3 WT-TACC3 fusion protein; test: NIH/3T3 FGFR3 WT-TACC3 cellular phospho-ERK assay (in vitro PD assay); assay type: cell-based; settings: Mus musculus, NIH3T3; 1-hr incubation, AlphaLISA p-ERK1/2; read-out: NIH/3T3 FGFR3 WT-TACC3 pERK
Experimental: NIH/3T3 FGFR3 WT-TACC3 Cellular Phospho-ERK Assay (In Vitro PD Assay)
50 μL of cell suspension (NIH/3T3 cells overexpressing FGFR3 WT-TACC3 fusion protein) (total 10,000 cells per well in growth medium (DMEM containing 1% Glutamax, 10% FBS and 1% Pen/Strep)) was seeded in a 384-well plate. After overnight incubation at 37° C. and 5% CO2, 5.5 μL of growth medium containing 10× testing compound was added into cell cultures (10 dose points with 4× serial dilution, starting with 10 μM, 0.1% DMSO final). After 1-hr incubation at 37° C. and 5% CO2, the medium was depleted and AlphaLISA SureFire Ultra p-ERKI1/2 (Thr202/Tyr204) Assay Kit (from PerkinElmer) was applied for phospho-ERK level detection according to the kit instructions. The RFUs (relative fluorescence units were measured on EnVision microplate reader (ex. 680 nm, em. 615 nm) and concentration-response curve was plotted using Prism to calculate IC50 (M), pIC50 (−log IC50) and HillSlope value.

[3] = target: T2, NIH/3T3 cells overexpressing FGFR3 V555M-TACC3 fusion protein (Homo sapiens, UniProt P22607, V555M, cells depend on it); test: NIH/3T3 FGFR3 V555M-TACC3 cell proliferation assay; assay type: cell-based; settings: 72-hr incubation, CellTiter Glo; read-out: NIH/3T3 FGFR3 V555M-TACC3 CTG
T2 construct: NIH/3T3 FGFR3 V555M-TACC3 CTG; other: 72-hr incubation, CellTiter Glo; fused on or other part: C-terminal part of TACC3 (coiled-coil) fused behind the FGFR3 kinase domain; Q9Y6A5 (Transforming acidic coiled-coil-containing protein 3)
T2 sequence (P22607 whole entry V555M, the tested form may be a part): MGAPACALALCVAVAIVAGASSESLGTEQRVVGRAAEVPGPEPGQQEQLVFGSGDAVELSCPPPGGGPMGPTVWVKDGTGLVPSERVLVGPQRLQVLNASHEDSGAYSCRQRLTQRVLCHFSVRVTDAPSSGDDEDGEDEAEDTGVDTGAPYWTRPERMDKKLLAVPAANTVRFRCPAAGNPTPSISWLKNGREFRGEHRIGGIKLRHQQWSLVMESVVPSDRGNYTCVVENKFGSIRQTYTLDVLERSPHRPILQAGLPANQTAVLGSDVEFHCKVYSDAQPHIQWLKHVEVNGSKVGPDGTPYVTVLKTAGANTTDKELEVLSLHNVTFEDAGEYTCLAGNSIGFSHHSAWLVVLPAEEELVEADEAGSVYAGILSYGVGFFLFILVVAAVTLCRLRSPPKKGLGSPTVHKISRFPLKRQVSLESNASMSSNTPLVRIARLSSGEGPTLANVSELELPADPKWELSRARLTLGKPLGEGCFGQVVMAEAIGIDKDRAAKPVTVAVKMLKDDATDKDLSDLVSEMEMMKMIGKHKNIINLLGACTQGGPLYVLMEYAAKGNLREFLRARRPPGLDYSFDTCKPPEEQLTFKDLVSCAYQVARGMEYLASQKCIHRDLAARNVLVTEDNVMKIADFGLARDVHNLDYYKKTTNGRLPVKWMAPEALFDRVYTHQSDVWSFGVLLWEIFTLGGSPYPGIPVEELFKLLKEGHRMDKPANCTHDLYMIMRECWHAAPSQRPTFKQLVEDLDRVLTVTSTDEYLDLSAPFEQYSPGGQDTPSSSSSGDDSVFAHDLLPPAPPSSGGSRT
Experimental: NIH/3T3 FGFR3 V555M-TACC3 Cell Proliferation Assay
In day 1, 90 μL of cell suspension (NIH/3T3 cells overexpressing FGFR3 V555M-TACC3 fusion protein) (total 30,000 cells per well in growth medium (DMEM containing 1% Glutamax, 10% FBS and 1% Pen/Strep)) was seeded in a 96-well plate and then incubated overnight at 37° C. and 5% CO2. In day 2, 10 μL of growth medium containing 10-fold stock solution of testing compound was added into cell cultures (9 dose points with 4× serial dilution, starting with 10 μM, 0.1% DMSO final). After 72-hr incubation at 37° C. and 5% CO2, in day 5 a volume of 50 μL CellTiter Glo (CTG) reagent was added into cell-containing 96-well plate and the plate was incubated at room temperature for 10 minutes before RLUs (relative light unit) were measured on a microplate reader with luminescence detection module. The RLU value was normalized to survival % and concentration-response curve was plotted using Prism to calculate IC50 (M), pIC50 (−log IC50) and HillSlope value.

SMILES: C[C@H](Nc1c(-c2nc3cnc(N4CCOCC4)cc3[nH]2)c(=O)[nH]c2ccsc12)c1ncccn1 [Compound 2, (S)-6-(6-Morpholino-1H-imidazo[4,5-c]pyridin-2-yl)-7-((1-(pyrimidin-2-yl)ethyl)amino)thieno[3,2-b]pyridin-5(4H)-one]
- IC50 [1]: 0.23 nM
- IC50 [2]: 1.09 nM
- GI50 [3]: 1.24 nM
